Results: publication PMC5656322, “BAK1 is involved in AtRALF1-induced inhibition of root cell expansion” (PLoS Genetics, 2017)
Where no end group is shown, it is not given here.

Columns and labels:
[1] = test system: extracellular domain of BAK1 (BAK1-ECD); assay: Yeast two-hybrid with BAK1-ECD; type: binding, Arabidopsis thaliana; conditions: yeast AH109, medium lacking Leu, Trp, His
From the text: (§1) Fig 6 AtRALF1 interacts physically with BAK1 protein. (A) The active AtRALF1 peptide interacts with the extracellular domain (ECD) of BAK1 (BAK1-ECD) in yeast. The AtRALF1 protein fused to the GAL4 DNA-binding domain (AtRALF1-pGBKT7) was used as bait to test its interaction with the extracellular domain of the proteins fused to the GAL4 activation domain (pGADT7): BAK1 (BAK1-ECD), BAK7 (BAK7-ECD), BRI1 (BRI1-ECD) and FLS2 (FLS2-ECD). (B) Blueprint showing the truncated proteins from the extracellular domain of BAK1 tested in the two-hybrid assay. The extracellular domain of BAK1 comprises leucine zippers (LZ), 5 leucine rich-regions (LRRs) and a proline-rich region (pro-rich). (C) AtRALF1-pGBKT7 was used as bait to test its interaction with truncated proteins fused to the GAL4 activation domain (pGADT7). […] HA-BAK1-ECD was detected with an anti-HA antibody. AtRALF1 was detected with an anti-RALF antibody. […] BAK1-GFP was detected with an anti-GFP antibody. […]
(§2) The coding regions of the mature peptides AtRALF1 and AtRALF34 were amplified from Arabidopsis genomic DNA and fused to the GAL4 DNA-binding domain and the MYC epitope tag using the NdeI/BamHI sites in the pGBKT7 (Clontech) vector. […] The proteins fused to the HA and MYC epitope tags were detected by protein blotting. […]

FLS2 (FLS2-ECD) = assay: Yeast two-hybrid with FLS2-ECD; type: binding, Arabidopsis thaliana; conditions: yeast AH109, medium lacking Leu, Trp, His
From the text: as §1, §2

[2] = test system: Arabidopsis seedlings, primary root; conditions: wild-type Arabidopsis; ref [5]; cited from earlier work
Procedure: To better understand the role of AtRALF1 and BRs in regulating cell expansion, we exposed different mutants and transgenic Arabidopsis plants with altered BR signaling pathways to the peptide hormone AtRALF1 at concentrations that inhibit root growth. Loss-of-function mutants (bri1-301, bsk3-2 and bak1-4), gain-of-function mutants (sud1, bes1-D and bzr1-D) and two overexpressor lines (BRI OX and DWF4 OX) were used in the root growth assays in the presence or absence of 10 μM AtRALF1 (Fig 1A).

[3] = test system: Arabidopsis seedlings, primary root; conditions: ref [10], cited from earlier work
From the text: FERONIA (FER), a receptor-like kinase with an extracellular malectin-like domain, has been identified as the receptor of the root-specific isoform AtRALF1 [10]. LORELEI (LRE) and LRE-like GPI-AP1 (LLG1) are two glycosylphosphatidylinositol-anchored proteins found in ovules and vegetative tissues, respectively, that physically interact with FER and are required for FER delivery to the cell membrane and FER signaling. […] In a search for putative genetic components that might be shared by both the AtRALF1 and BR signaling pathways, we tested mutants lacking different components of the BR signaling pathway in root growth assays with inhibitory concentrations of the AtRALF1 peptide. […] A previous study in which 18 receptor-like proteins were tested in root g ...

Substance: AtRALF1: root-specific RALF isoform in Arabidopsis; recombinant peptide hormone produced in E. coli (ATTKYISYQSLKRNSVPCSRRGASYYNCQNGAQANPYSRGCSKIARCRS; ends and bridges not checked; cysteine pairing not given here)
- interaction with BAK1-ECD (Y2H complementation) [1]: able to complement only the BAK1-ECD construct
- interaction with FLS2-ECD (Y2H complementation) (FLS2 (FLS2-ECD)): able to complement only the BAK1-ECD construct
- primary root growth inhibition [2]: inhibits the primary root growth of wild-type Arabidopsis plants
- root growth inhibition, sensitivity of fer4 ([3]; FERONIA mutant fer4, low concentrations): insensitive to low concentrations of the AtRALF1 peptide
- root growth inhibition ([3]; bak1-4 mutant, 1 μM): the roots of the bak1-4 mutant were inhibited by the peptide
